Assay results from US10457707B2, “Substituted urea depsipeptide analogs as activators of the CLPP endopeptidase” (priority 2015, dated 2019).
In brackets after ≈: the same amount, converted by molar mass. Like-named read-outs stand apart in the source and are kept apart here. *1 amine or outer side, *2 acyl side, *3 side chain or, on linkers, in order; H or OH if unused. Where a SMILES comes first, the peptide text is derived from it. Bridges are numbered along the chain shown (N, C = ends). [ ]: non-standard residue; d: D form. The star is where a group is joined. ξ: configuration not given here. Phe(3,5-F2) = N[C@@H](Cc1cc(F)cc(F)c1)C(=O)O; NH(4-OCF3-phenyl) = FC(F)(F)Oc1ccc(N*)cc1; Pro(4R-Me) = C[C@H]1CN[C@H](C(=O)O)C1; ξPro(4R-OH) = O=C(O)C1C[C@@H](O)CN1; ξPro(4S-Me) = C[C@@H]1CNC(C(=O)O)C1; ξPro(4R-Me) = C[C@H]1CNC(C(=O)O)C1; NH(4-Et-phenyl) = CCc1ccc(N*)cc1; aThr = C[C@H](O)[C@H](N)C(=O)O; X12 = c1nc2ccc(N*)cc2[nH]1; Pip = O=C(O)[C@@H]1CCCCN1; NMeA = CN[C@@H](C)C(=O)O; ξPip = O=C(O)C1CCCCN1; CO = O=C([*:1])[*:2]; ξP = O=C(O)C1CCCN1

Legend:
Format in all cases: cell-based
[1] = system: Bacillus subtilis, ATCC 23857; test: Minimal inhibitory concentration assay (microbroth dilution); conditions: Bacillus subtilis, ATCC23857; read-out: Minimal Inhibitory Concentrations B. subtilis ATCC 23857
Method: (§1) It is understood, that in various aspects, the MIC is determined by a microbroth dilution method. In a further aspect, the MIC is determined by a microbroth dilution method using Staphylococcus aureus, ATCC 29213. In a still further aspect, the MIC is determined by a microbroth dilution method using Staphylococcus aureus, NRS70. In a yet further aspect, the MIC is determined by a microbroth dilution method using Streptococcus pyogenes, ATCC 700294. In an even further aspect, the MIC is determined by a microbroth dilution method using Streptococcus pneumoniae, DAW27. In a still further aspect, the MIC is determined by a microbroth dilution method using Bacillus subtilis, ATCC 23857. In a yet further aspect, the MIC is determined by a microbroth dilution method using Enterococcus faecalis, ATCC 33186. In an even further aspect, the MIC is determined using Staphylococcus aureus, USA 300. In a still further aspect, the MIC is determined using Streptococcus pneumoniae, R6. In a further aspect, the MIC is determined using Staphylococcus aureus, USA 300 and compared to the MIC determined using Staphylococcus aureus, USA 300 wherein ClpP is inactivated, thus allowing confirmation that killing is via a ClpP-dependent pathway.
(§2) Minimal inhibitory concentrations (“MICs”) were determined using the microbroth dilution method according to Clinical Laboratory Standards Institute (CLSI; National, C.F. C. L. S., Methods for Dilution Antimicrobial Susceptibility Tests for Bacteria Grow aerobically-Seventh Edition: Approved Standard M7-A7, CLSI, Wayne, Pa., USA, 2008) and were read by visual inspection. Two fold serial dilutions of test compound in 100 μL of the appropriate broth media were first prepared in 96-well round bottom microtiter plates (Nalgene Nunc International, Rochester, N.Y., USA). An equivalent volume (100 μL) of bacterial broth inocula containing approximately 10^5 bacterial cfu/mL was added to each well to give final concentrations of test compound starting at 200 μM. The plates were then incubated aerobically at 37° C. All strains were incubated overnight. After incubations, in all cases the MIC was recorded as the lowest concentration of drug that prevented bacterial growth. The bacterial strains for which MIC was determined as described in Table 4.

[2] = system: Staphylococcus aureus, ATCC 29213; test: as above; conditions: ATCC29213, read-out: Minimal Inhibitory Concentrations S. aureus ATCC 29213
Method: as §1, §2

[3] = system: Staphylococcus aureus, NRS70; test: as above
Method: as §1, §2

[4] = system: Streptococcus pyogenes, ATCC 700294; test: as above; conditions: Streptococcus pyogenes, ATCC700294; read-out: Minimal Inhibitory Concentrations S. pyogenes ATCC 700294
Method: as §1
Minimal inhibitory concentrations (“MICs”) were determined using the microbroth dilution method according to Clinical Laboratory Standards Institute (CLSI; National, C.F. C. L. S., Methods for Dilution Antimicrobial Susceptibility Tests for Bacteria Grow aerobically-Seventh Edition: Approved Standard M7-A7, CLSI, Wayne, Pa., USA, 2008) and were read by visual inspection. Two fold serial dilutions of test compound in 100 μL of the appropriate broth media were first prepared in 96-well round bottom microtiter plates (Nalgene Nunc International, Rochester, N.Y., USA). […] The plates were then incubated aerobically at 37° C. All strains were incubated overnight. After incubations, in all cases the MIC was recorded as the lowest concentration of drug that prevented bacterial growth. The bacterial strains for which MIC was determined as described in Table 4.

[5] = system: Staphylococcus aureus, USA 300 wherein ClpP is inactivated; test: Minimal inhibitory concentration assay
Method: as §1, §2

[6] = system: Staphylococcus aureus, USA 300; test: Minimal inhibitory concentration assay; conditions: USA300, read-out: Minimal Inhibitory Concentrations S. aureus USA 300
Method: as §1, §2

[7] = system: Enterococcus faecalis, ATCC 33186; test: Minimal inhibitory concentration assay (microbroth dilution); conditions: Enterococcus faecalis, ATCC33186, read-out: Minimal Inhibitory Concentrations E. faecalis ATCC 33186
Method: as §1, §2

[8] = Staphylococcus aureus, NRS70; read-out: Minimal Inhibitory Concentrations S. aureus NRS70

Compound | MIC [1] | MIC [2] | MIC [3, 8] | MIC [4] | Minimal Inhibitory Concentrations S. aureus USA 300 ΔClpP [5] | MIC [6] | MIC [7] | MIC ([3]; Staphylococcus aureus, NRS70, read-out: Minimal Inhibitory Concentrations S. aureus NRS70)
C[C@@H]1NC(=O)[C@H](C)N(C)C(=O)C2CCCN2C(=O)[C@@H](NC(=O)[C@H](Cc2cc(F)cc(F)c2)NC(=O)Nc2ccc(OC(F)(F)F)cc2)[C@H](C)OC(=O)C2CCCN2C1=O (stereo partly drawn) [Compound 27, (2S)-3-(3,5-difluorophenyl)-N-((6S,9S,11aS,17S,18S)-6,9,10,18-tetramethyl-5,8,11,16,20-pentaoxohexadecahydro-1H,5H,16H-dipyrrolo[2,1-c:2′,1′-l][1]oxa[4,7,10,13]tetraazacyclohexadecin-17-yl)-2-(3-(4-(trifluoromethoxy)phenyl)ureido)propanamide] ({NH(4-OCF3-phenyl)-CO}-[Phe(3,5-F2)][aThr][ξP][NMeA]A[ξP]; ester 2-C) | 0.02 µM (≈ 0.0168 µg/mL) | 0.2 µM (≈ 0.168 µg/mL) | 0.2 µM (≈ 0.168 µg/mL) | 0.23 µM (≈ 0.193 µg/mL) | 100 µM | 0.2 µM (≈ 0.168 µg/mL) | – | –
CCc1ccc(NC(=O)N[C@@H](Cc2cc(F)cc(F)c2)C(=O)N[C@@H]2C(=O)N3CCCC3C(=O)N(C)[C@@H](C)C(=O)N[C@@H](C)C(=O)N3CCCC3C(=O)O[C@H]2C)cc1 (stereo partly drawn) [Compound 29, (2S)-3-(3,5-difluorophenyl)-2-(3-(4-ethylphenyl)ureido)-N-((6S,9S,11aS,17S,18S)-6,9,10,18-tetramethyl-5,8,11,16,20-pentaoxohexadecahydro-1H,5H,16H-dipyrrolo[2,1-c:2′,1′-l][1]oxa[4,7,10,13]tetraazacyclohexadecin-17-yl)propanamide] ({NH(4-Et-phenyl)-CO}-[Phe(3,5-F2)][aThr][ξP][NMeA]A[ξP]; ester 2-C) | 0.01 µM (≈ 0.00782 µg/mL) | 0.2 µM (≈ 0.156 µg/mL) | 0.2 µM (≈ 0.156 µg/mL) | 0.13 µM (≈ 0.102 µg/mL) | 100 µM | 0.2 µM (≈ 0.156 µg/mL) | – | –
CCc1ccc(NC(=O)N[C@@H](Cc2cc(F)cc(F)c2)C(=O)N[C@@H]2C(=O)N3CCCC3C(=O)N(C)[C@@H](C)C(=O)N[C@@H](C)C(=O)N3C[C@@H](C)CC3C(=O)O[C@H]2C)cc1 (stereo partly drawn) [Compound 30, (S)-3-(3,5-difluorophenyl)-2-(3-(4-ethylphenyl)ureido)-N-((2S,6S,9S,11aS,17S,18S,20aS)-2,6,9,10,18-pentamethyl-5,8,11,16,20-pentaoxohexadecahydro-1H,5H,16H-dipyrrolo[2,1-c:2′,1′-L][1]oxa[4,7,10,13]tetraazacyclohexadecin-17-yl)propanamide] ({NH(4-Et-phenyl)-CO}-[Phe(3,5-F2)][aThr][ξP][NMeA]A[ξPro(4S-Me)]; ester 2-C) | 0.001 µM (≈ 0.000796 µg/mL) | 0.1 µM (≈ 0.0796 µg/mL) | 0.2 µM (≈ 0.159 µg/mL) | 0.03 µM (≈ 0.0239 µg/mL) | 50 µM | 0.1 µM (≈ 0.0796 µg/mL) | – | –
C[C@H]1CC2C(=O)O[C@@H](C)[C@H](NC(=O)[C@H](Cc3cc(F)cc(F)c3)NC(=O)Nc3ccc(OC(F)(F)F)cc3)C(=O)N3C[C@H](O)CC3C(=O)N(C)[C@@H](C)C(=O)N[C@@H](C)C(=O)N2C1 (stereo partly drawn) [Compound 32, (S)-3-(3,5-difluorophenyl)-N-((2S,6S,9S,11aS,13R,17S,18S,20aS)-13-hydroxy-2,6,9,10,18-pentamethyl-5,8,11,16,20-pentaoxohexadecahydro-1H,5H,16H-dipyrrolo[2,1-c:2′,1′-l][1]oxa[4,7,10,13]tetraazacyclohexadecin-17-yl)-2-(3-(4-(trifluoromethoxy)phenyl)ureido)propanamide] ({NH(4-OCF3-phenyl)-CO}-[Phe(3,5-F2)][aThr][ξPro(4R-OH)][NMeA]A[ξPro(4S-Me)]; ester 2-C) | 0.39 µM (≈ 0.338 µg/mL) | 0.1 µM (≈ 0.0868 µg/mL) | 0.1 µM (≈ 0.0868 µg/mL) | 0.2 µM (≈ 0.174 µg/mL) | 100 µM | 0.39 µM (≈ 0.338 µg/mL) | – | –
C[C@@H]1CC2C(=O)O[C@@H](C)[C@H](NC(=O)[C@H](Cc3cc(F)cc(F)c3)NC(=O)Nc3ccc(OC(F)(F)F)cc3)C(=O)N3CCCC3C(=O)N3CCCCC3C(=O)N[C@@H](C)C(=O)N2C1 (stereo partly drawn) [Compound 40, (S)-3-(3,5-difluorophenyl)-2-(3-(4-(trifluoromethoxy)phenyl)ureido)-N-((2R,6S,8aS,14aS,20S,21S,23aS)-2,6,21-trimethyl-5,8,14,19,23-pentaoxooctadecahydro-1H,5H,14H,19H-pyrido[2,1-i]dipyrrolo[2,1-c:2′,1′-L][1]oxa[4,7,10,13]tetraazacyclohexadecin-20-yl)propanamide] ({NH(4-OCF3-phenyl)-CO}-[Phe(3,5-F2)][aThr][ξP][ξPip]A[ξPro(4R-Me)]; ester 2-C) | 0.02 µM (≈ 0.0176 µg/mL) | 0.05 µM (≈ 0.0439 µg/mL) | 0.02 µM (≈ 0.0176 µg/mL) | 0.4 µM (≈ 0.351 µg/mL) | 25 µM | 0.05 µM (≈ 0.0439 µg/mL) | – | –
C[C@H]1CC2C(=O)OC[C@H](NC(=O)[C@H](Cc3ccccc3)NC(=O)Nc3ccc(OC(F)(F)F)cc3)C(=O)N3CCCC3C(=O)N3CCCCC3C(=O)N[C@@H](C)C(=O)N2C1 (stereo partly drawn) [Compound 44, (S)—N-((2S,6S,8aS,14aS,20S,23aS)-2,6-dimethyl-5,8,14,19,23-pentaoxooctadecahydro-1H,5H,14H,19H-pyrido[2,1-i]dipyrrolo[2,1-c:2′,1′-l][1]oxa[4,7,10,13]tetraazacyclohexadecin-20-yl)-3-phenyl-2-(3-(4-(trifluoromethoxy)phenyl)ureido)propanamide] | 0.1 µM (≈ 0.0828 µg/mL) | 0.4 µM (≈ 0.331 µg/mL) | 0.4 µM (≈ 0.331 µg/mL) | 0.2 µM (≈ 0.166 µg/mL) | 50 µM | 0.8 µM (≈ 0.662 µg/mL) | – | –
C[C@H]1CC2C(=O)OC[C@H](NC(=O)[C@H](Cc3cc(F)cc(F)c3)NC(=O)Nc3ccc4c(c3)OCO4)C(=O)N3CCCC3C(=O)N3CCCCC3C(=O)N[C@@H](C)C(=O)N2C1 (stereo partly drawn) [Compound 46, (S)-2-(3-(benzo[d][1,3]dioxol-5-yl)ureido)-3-(3,5-difluorophenyl)-N-((2S,6S,8aS,14aS,20S,23aS)-2,6-dimethyl-5,8,14,19,23-pentaoxooctadecahydro-1H,5H,14H,19H-pyrido[2,1-i]dipyrrolo[2,1-c:2′,1′-l][1]oxa[4,7,10,13]tetraazacyclohexadecin-20-yl)propanamide] | 0.4 µM (≈ 0.33 µg/mL) | 3.1 µM (≈ 2.55 µg/mL) | 1.6 µM (≈ 1.32 µg/mL) | 0.8 µM (≈ 0.659 µg/mL) | 200 µM | 3.1 µM (≈ 2.55 µg/mL) | – | –
C[C@@H]1C[C@H]2C(=O)O[C@@H](C)[C@H](NC(=O)[C@H](Cc3cc(F)cc(F)c3)NC(=O)Nc3ccc4nc[nH]c4c3)C(=O)N3CCC[C@H]3C(=O)N3CCCC[C@H]3C(=O)N[C@@H](C)C(=O)N2C1 [Compound 303, (S)-2-(3-(1H-benzo[d]imidazol-6-yl)ureido)-3-(3,5-difluorophenyl)-N-((2R,6S,8aS,14aS,20S,21S,23aS)-2,6,21-trimethyl-5,8,14,19,23-pentaoxooctadecahydro-1H,5H,14H,19H-pyrido[2,1-i]dipyrrolo[2,1-c:2′,1′-l][1]oxa[4,7,10,13]tetraazacyclo-hexadecin-20-yl)propanamide] ({X12-CO}-[Phe(3,5-F2)][aThr]P[Pip]A[Pro(4R-Me)]; ester 2-C) | – | 20 µM (≈ 16.7 µg/mL) | – | – | >20 µM | 15.1 µM (≈ 12.6 µg/mL) | 2.5 µM (≈ 2.08 µg/mL) | 10.1 µM (≈ 8.42 µg/mL)
